Literature values in patent publication US20110212944A1, “2-OXO-1-PYRROLIDINE DERIVATIVES” (priority 2008, published 2011).

In the case of `CCC[C@@H]1CC(=O)N([C@@H](CC)C(N)=O)C1` [brivaracetam, 2(S)-[2-oxo-4(R)-propylpyrrolidin-1-yl]butyramide], the “time after drug administration within which adverse events subsided” value (after drug administration) is given as at most 24 h and the “severity of treatment emergent adverse events” value (primarily CNS-related events (dizziness, somnolence, headache etc.)) is given as “mild to moderate”.
